The text below walks through data of US20060052384A1, “Aryl piperidine derivatives as inducers of ldl-receptor expression for the treatment of hypercholesterolemia” (priority 2002, published 2006).

For the first data set, the system named is LDL-r promoter and the luciferase reporter gene in HepG2 cells. Kind of data set: In vitro assay: induction of luciferase activity in HepG2 cells stably transfected with LDL-r promoter/luciferase reporter construct. Type of data set: cell-based. To be noted: Homo sapiens, 24 hours incubation, RPMI medium with 2% lipoprotein-deficient serum, tested 10^-6M to 10^-9M. The procedure: HepG2 cells, stably transfected with a construct comprising the LDL-r promoter and the luciferase reporter gene, were seeded at 50,000 cells/well in 96 well plates. After 1 day cells were incubated with compounds for 24 hours in RPMI medium containing 2% of lipoprotein-deficient serum. Compounds were tested from 10^−6M to 10^−9M. Cell lysates were prepared and the luciferase activity was measured by the luciferase assay system (Promega). Induction of luciferase activity was calculated taking untreated cells as control. The ED50 of each compounds was determined compared to the ED50 of an internal standard.
As for `COc1c(C2CCN(CCCCNC(=O)c3ccc(-c4ccc(Cl)cn4)cc3)CC2)ccc2c1CCCC2` [Example 32, 4-(5-Chloro-pyridin-2-yl)-N-{4-[4-(1-methoxy-5,6,7,8-tetrahydro-naphthalen-2-yl)-piperidin-1-yl]-butyl}-benzamide], it took 10 nM to reach a half-maximal effect (EC50).
On to `Cn1cc(C2CCN(CCCCNC(=O)c3ccc(-c4ccc(C(F)(F)F)cc4)c(CO)c3)CC2)c2ccccc21` [Example 1], for which the midpoint of the response, the EC50, lay at 7 nM.

Test system in the next data set: not given
Test: not given
Conditions: not given
With `COc1c(C2CCN(CCCCNC(=O)c3ccc(-c4ccc(C#N)cn4)cc3)CC2)ccc2c1CCCC2` [Example 30, 4-(5-Cyano-pyridin-2-yl)-N-{4-[4-(1-methoxy-5,6,7,8-tetrahydro-naphthalen-2-yl)-piperidin-1-yl]-butyl}-benzamide], the melting point (commonly the temperature of the solid-liquid transition) lay within 220 to 222 °C.
For the molecule `COc1c(C2CCN(CCCCNC(=O)c3[nH]nc(-c4ccc(C#N)cc4)c3CO)CC2)ccc2c1CCCC2` [Example 14], the melting point was 185 to 186 °C.
Consider `COc1c(C2CCN(CCCCNC(=O)c3oc(-c4ccc(C#N)cc4)nc3C)CC2)ccc2c1CCCC2` [Example 15, 2-(4-Cyano-phenyl)-4-methyl-oxazole-5-carboxylic acid {4-[4-(1-methoxy-5,6,7,8-tetrahydro-naphthalen-2-yl)-piperidin-1-yl]-butyl}amide], for which the melting point worked out at 157 °C.
The molecule `COc1c(C2CCN(CCCCNC(=O)c3ccc(-c4ccc(NC(=O)C(F)(F)F)cc4)cc3)CC2)ccc2c1CCCC2` [Example 29, 4′-(2,2,2-Trifluoro-acetylamino)-biphenyl-4-carboxylic acid {4-[4-(1-methoxy-5,6,7,8-tetrahydro-naphthalen-2-yl)-piperidin-1-yl]-butyl}-amide] had a melting point of 226 to 228 °C.
`COc1c(C2CCN(CCCCNC(=O)c3ccc(-c4ccc(Cl)cc4)c(O)c3)CC2)ccc2c1CCCC2` [Example 25] gave a melting point of 199 °C.
Take `COc1c(C2CCN(CCCCNC(=O)c3oc(-c4ccc(C#N)cc4)nc3CO)CC2)ccc2c1CCCC2` [Example 16, 2-(4-Cyano-phenyl)-4-hydroxymethyl-oxazole-5-carboxylic acid {4-[4-(1-methoxy-5,6,7,8-tetrahydro-naphthalen-2-yl)-piperidin-1-yl]-butyl}-amide]: the melting point is 160 to 162 °C.
With `COc1c(C2CCN(CCCCNC(=O)c3ccc(-c4ccc(C#N)nc4)cc3)CC2)ccc2c1CCCC2` [Example 43, 4-(6-Cyano-pyridin-3-yl)-N-{4-[4-(1-methoxy-5,6,7,8-tetrahydro-naphthalen-2-yl)-piperidin-1-yl]-butyl}-benzamide], the melting point fell in the range of 179 to 181 °C.
In turn, `COc1c(C2CCN(CCCCNC(=O)c3ccc(-c4ccc(C#N)cc4)nc3)CC2)ccc2c1CCCC2` [Example 39, 6-(4-Cyano-phenyl)-N-{4-[4-(1-methoxy-5,6,7,8-tetrahydro-naphthalen-2-yl)-piperidin-1-yl]-butyl}-nicotinamide] displayed a melting point of 166 to 168 °C.
As for `COc1c(C2CCN(CCCCNC(=O)c3ccc(-c4ccc(C(C)=O)s4)cc3)CC2)ccc2c1CCCC2` [Example 20, 4-(5-Acetyl-thiophen-2-yl)-N-{4-[4-(1-methoxy-5,6,7,8-tetrahydro-naphthalen-2-yl)-piperidin-1-yl]-butyl}-benzamide], the melting point fell in the range of 216 to 218 °C.
Take `COc1c(C2CCN(CCCCNC(=O)c3ccc(-c4csc(C(C)=O)c4)cc3)CC2)ccc2c1CCCC2` [Example 33, 4-(5-Acetyl-thiophen-3-yl)-N-{4-[4-(1-methoxy-5,6,7,8-tetrahydro-naphthalen-2-yl)-piperidin-1-yl]-butyl}-benzamide]: the melting point lay within 208 to 210 °C.
Molecule `COc1c(C2CCN(CCCCNC(=O)c3ccc(-c4ccc(Cl)cn4)cc3)CC2)ccc2c1CCCC2` [Example 32, 4-(5-Chloro-pyridin-2-yl)-N-{4-[4-(1-methoxy-5,6,7,8-tetrahydro-naphthalen-2-yl)-piperidin-1-yl]-butyl}-benzamide] yielded a melting point of 213 to 215 °C.
`COc1c(C2CCN(CCCCNC(=O)c3ccc(-c4cnc(C#N)nc4)cc3)CC2)ccc2c1CCCC2` [Example 44, 4-(2-Cyano-pyrimidin-5-yl)-N-{4-[4-(1-methoxy-5,6,7,8-tetrahydro-naphthalen-2-yl)-piperidin-1-yl]-butyl}-benzamide] came in with a melting point of 202 °C.
Same read-out and setting: for `COc1c(C2CCN(CCCCNC(=O)c3ccc(-c4ccc(Cl)cc4)nc3)CC2)ccc2c1CCCC2` [Example 38, 6-(4-Chloro-phenyl)-N-{4-[4-(1-methoxy-5,6,7,8-tetrahydro-naphthalen-2-yl)-piperidin-1-yl]-butyl}-nicotinamide] the value was 184 to 186 °C; for `COc1c(C2CCN(CCCCNC(=O)c3ccc(-c4ccc(Cl)s4)cc3)CC2)ccc2c1CCCC2` [Example 23, 4-(5-Chloro-thiophen-2-yl)-N-{4-[4-(1-methoxy-5,6,7,8-tetrahydro-naphthalen-2-yl)-piperidin-1-yl]-butyl}-benzamide], 185 to 187 °C; for `COc1c(C2CCN(CCCCNC(=O)c3ccc(-c4ccsc4C#N)cc3)CC2)ccc2c1CCCC2` [Example 31, 4-(2-Cyano-thiophen-3-yl)-N-{4-[4-(1-methoxy-5,6,7,8-tetrahydro-naphthalen-2-yl)-piperidin-1-yl]-butyl}-benzamide], 236 to 238 °C.
`CCOc1cc(CC)ccc1C1CCN(CCCCNC(=O)c2sc(-c3ccc(C(F)(F)F)cc3)nc2CO)CC1` [Example 4, 4-Hydroxymethyl-2-(4-trifluoromethyl-phenyl)-thiazole-5-carboxylic acid {4-[4-(2-ethoxy-4-ethyl-phenyl)-piperidin-1-yl]-butyl}-amide] registered a melting point of 150 °C.
Still for that read-out and setting: as for `COc1c(C2CCN(CCCCNC(=O)c3sc(-c4ccc(Cl)cc4)nc3C)CC2)ccc2c1CCCC2` [Example 12, 2-(4-Chloro-phenyl)4-methyl-thiazole-5-carboxylic acid {4-[4-(1-methoxy-5,6,7,8-tetrahydro-naphthalen-2-yl)-piperidin-1-yl]-butyl}-amide], the figure is 151 °C; as for `COc1c(C2CCN(CCCCNC(=O)c3ccc(-c4ccc(NS(=O)(=O)CC(F)(F)F)cc4)cc3)CC2)ccc2c1CCCC2` [Example 22, 4′-(2,2,2-Trifluoro-ethanesulfonylamino)-biphenyl4-carboxylic acid {4-[4-(1-methoxy 5,6,7,8-tetrahydro-naphthalen-2-yl)-piperidin-1-yl]-butyl}-amide], 182 to 184 °C; as for `COc1c(C2CCN(CCCCNC(=O)c3sc(-c4ccc(C#N)cc4)nc3CO)CC2)ccc2c1CCCC2` [Example 7, 2-(4-Cyano-phenyl)-hydroxymethyl-thiazole-5-carboxylic acid {4-[4-(1-methoxy-5,6,7,8-tetrahydro-naphthalen-2-yl)-piperidin-1-yl]-butyl}-amide], 212 °C.
As to `COc1c(C2CCN(CCCCNC(=O)c3ccc(-c4ccc(Cl)nn4)cc3)CC2)ccc2c1CCCC2` [Example 35, 4-(6-Chloro-pyridazin-3-yl)-N-{4-[4-(1-methoxy-5,6,7,8-tetrahydro-naphthalen-2-yl)-piperidin-1-yl]-butyl}-benzamide], the melting point is 192 to 194 °C.
The molecule `COc1c(C2CCN(CCCCNC(=O)c3ccc(-c4ccc(Cl)nc4)cc3)CC2)ccc2c1CCCC2` [Example 34] yielded a melting point of 202 to 204 °C.
Regarding `COc1c(C2CCN(CCCCNC(=O)c3ccc(-c4ccc(C#N)s4)nc3)CC2)ccc2c1CCCC2` [Example 42, 6-(5-Cyano-thiophen-2-yl)-N-{4-[4-(1-methoxy-5,6,7,8-tetrahydro-naphthalen-2-yl)-piperidin-1-yl]-butyl}-nicotinamide], the melting point lay in the range of 186 to 188 °C.
The same measure, in the same setting: for `COc1c(C2CCN(CCCCNC(=O)c3ccc(-c4ccc(C(=O)N(C)C)cc4)cc3)CC2)ccc2c1CCCC2` [Example 19] the value was 170 °C; for `COc1c(C2CCN(CCCCNC(=O)c3ccc(-c4ccc(C#N)o4)cc3)CC2)ccc2c1CCCC2` [Example 36], 180 to 182 °C.
Still for that read-out and setting: for `COc1c(C2CCN(CCCCNC(=O)c3ccc(-c4ccc(Cl)s4)nc3)CC2)ccc2c1CCCC2` [Example 40, 6-(5-Chloro-thiophen-2-yl)-N-{4-[4-(1-methoxy-5,6,7,8-tetrahydro-naphthalen-2-yl)-piperidin-1-yl]-butyl}-nicotinamide] the value was 175 to 177 °C.
Regarding `COc1c(C2CCN(CCCCNC(=O)c3ccc(-c4ccc(NS(=O)(=O)C(C)C)cc4)cc3)CC2)ccc2c1CCCC2` [Example 24], the melting point lay within 188 to 190 °C.
For the molecule `COc1c(C2CCN(CCCCNC(=O)c3ccc(-c4ccc(C#N)cc4)cn3)CC2)ccc2c1CCCC2` [Example 41, 5-(4-Cyano-phenyl)-pyridine-2-carboxylic acid {4-[4-(1-methoxy-5,6,7,8-tetrahydro-naphthalen-2-yl)-piperidin-1-yl]-butyl}-amide], the melting point stood at 140 °C.
In turn, `COc1c(C2CCN(CCCCNC(=O)c3ccc(-c4ccc(Cl)cc4)cn3)CC2)ccc2c1CCCC2` [Example 37, 5-(4-Chloro-phenyl)-pyridine-2-carboxylic acid {4-[4-(1-methoxy-5,6,7,8-tetrahydro-naphthalen-2-yl)piperidin-1-yl]-butyl}-amide] showed a melting point of 103 to 105 °C.
As to `COc1c(C2CCN(CCCCNC(=O)c3ccc(-c4ccc(C(=O)C(F)(F)F)cc4)cc3)CC2)ccc2c1CCCC2` [Example 26, 4′-(2,2,2-Trifluoro-acetyl)-biphenyl-4-carboxylic acid {4-[4-(1-methoxy-5,6,7,8-tetrahydro-naphthalen-2-yl)-piperidin-1-yl]-butyl}-amide], the melting point lay in the range of 197 to 199 °C.
